Measurements published in US10239861B2, “Therapeutic compounds and uses thereof” (GENENTECH, INC., priority 2015, dated 2019).

Biological target: PCAF bromodomain (His/Flag epitope tagged PCAF719-832) (Homo sapiens (Human), UniProt Q92831)
Assay: PCAF AlphaLisa binding assay
Settings: AlphaLisa; PCAF bromodomain 225 nM, biotinylated small molecule ligand 6 nM; read-out: PCAF IC50
Experimental: IC50 Measurements for Inhibitors Using PCAF AlphaLisa Binding Assay
PCAF bromodomain binding and inhibition of the compounds disclosed herein was assessed by monitoring the engagement of biotinylated small molecule ligand (known to bind to the PCAF bromodomain) with the target using the AlphaLisa technology (Perkin-Elmer).

Sequence of PCAF bromodomain (His/Flag epitope tagged PCAF719-832) (Q92831 719-832): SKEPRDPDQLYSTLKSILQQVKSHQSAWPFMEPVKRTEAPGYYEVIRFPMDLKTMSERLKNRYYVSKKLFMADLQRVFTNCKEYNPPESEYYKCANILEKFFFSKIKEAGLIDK

## Cn1ncc(NC2CCCN(Cc3nc(-c4ccc(Cl)cc4)no3)C2)c(Cl)c1=O (stereo not shown) [Example 55, 4-chloro-5-[[1-[[3-(4-chlorophenyl)-1,2,4-oxadiazol-5-yl]methyl]-3-piperidyl]amino]-2-methyl-pyridazin-3-one]
  IC50: 466 nM

## Cn1ncc(NC2CCCN(Cc3ccc(F)cc3)C2)c(Cl)c1=O (stereo not shown) [Example 56, 4-chloro-5-[[1-[(4-fluorophenyl)methyl]-3-piperidyl]amino]-2-methyl-pyridazin-3-one]
  IC50: 139 nM

## CN1CCCC[C@H](Nc2cnn(C)c(=O)c2Cl)C1 [Example 57, (S)-4-chloro-2-methyl-5-((1-methylazepan-3-yl)amino)pyridazin-3(2H)-one]
  IC50: 32.9 nM

## CN1CCCC[C@@H](Nc2cnn(C)c(=O)c2Cl)C1 [Example 58, (R)-4-chloro-2-methyl-5-((1-methylazepan-3-yl)amino)pyridazin-3(2H)-one]
  IC50: 169 nM
